Source: the NIST ThermoML archive (doi:10.1021/je100042c)

Details: 101.33 kPa, Liquid; for viscosity: Concentric cylinders viscometry; for mass density: Vibrating tube method

CCCCCCCC/C=C\CCCCCCCC(=O)OCC [ethyl (Z)-9-octadeceneoate]
Details | mass density [kg/m3] | viscosity [mPa·s]
278.15 K | 880.5 | 10.39
283.15 K | 876.9 | 8.839
288.15 K | 873.2 | 7.595
293.15 K | 869.5 | 6.591
298.15 K | 865.9 | 5.769
303.15 K | 862.2 | 5.092
308.15 K | 858.5 | 4.525
313.15 K | 854.9 | 4.048
318.15 K | 851.3 | 3.641
323.15 K | 847.6 | 3.292
328.15 K | 844 | 2.99
333.15 K | 840.4 | 2.729
338.15 K | 836.8 | 2.502
343.15 K | 833.1 | 2.301
348.15 K | 829.5 | 2.124
353.15 K | 825.9 | 1.967
358.15 K | 822.3 | 1.827
363.15 K | 818.7 | 1.702

CCCCCCCCCC(=O)OCC [ethyl decanoate]
Details | mass density [kg/m3] | viscosity [mPa·s]
283.15 K | 872.5 | 2.896
288.15 K | 868.4 | 2.588
293.15 K | 864.3 | 2.326
298.15 K | 860.2 | 2.103
303.15 K | 856.2 | 1.911
308.15 K | 852.1 | 1.745
313.15 K | 848 | 1.6
318.15 K | 843.9 | 1.473
323.15 K | 839.8 | 1.36
328.15 K | 835.7 | 1.259
333.15 K | 831.6 | 1.169
338.15 K | 827.5 | 1.089
343.15 K | 823.4 | 1.017
348.15 K | 819.2 | 0.9516
353.15 K | 815.1 | 0.8929

CCCCCCCCCCCC(=O)OCC [ethyl dodecanoate]
Details | mass density [kg/m3] | viscosity [mPa·s]
283.15 K | 870.3 | 4.335
288.15 K | 866.4 | 3.813
293.15 K | 862.4 | 3.38
298.15 K | 858.5 | 3.015
303.15 K | 854.6 | 2.707
308.15 K | 850.7 | 2.446
313.15 K | 846.8 | 2.22
318.15 K | 842.9 | 2.024
323.15 K | 839 | 1.853
328.15 K | 835.1 | 1.704
333.15 K | 831.1 | 1.57
338.15 K | 827.2 | 1.453
343.15 K | 823.3 | 1.349
348.15 K | 819.4 | 1.254
353.15 K | 815.4 | 1.171

CCCCCCCCCCCCCCCC(=O)OCC [ethyl hexadecanoate]
Details | mass density [kg/m3] | viscosity [mPa·s]
303.15 K | 852.6 | 5.011
308.15 K | 848.9 | 4.44
313.15 K | 845.2 | 3.956
318.15 K | 841.5 | 3.547
323.15 K | 837.9 | 3.197
328.15 K | 834.2 | 2.897
333.15 K | 830.5 | 2.637
338.15 K | 826.9 | 2.412
343.15 K | 823.2 | 2.214
348.15 K | 819.5 | 2.039
353.15 K | 815.9 | 1.884
358.15 K | 812.2 | 1.746
363.15 K | 808.6 | 1.623

CCCCCCCCCCCCCCCCCC(=O)OCC [ethyl octadecanoate]
Details | mass density [kg/m3] | viscosity [mPa·s]
313.15 K | 844.8 | 5.082
318.15 K | 841.1 | 4.529
323.15 K | 837.5 | 4.057
328.15 K | 833.9 | 3.654
333.15 K | 830.3 | 3.307
338.15 K | 826.7 | 3.007
343.15 K | 823.1 | 2.744
348.15 K | 819.5 | 2.515
353.15 K | 815.9 | 2.313
358.15 K | 812.3 | 2.135
363.15 K | 808.7 | 1.978

CCCCCCCCCCCCCC(=O)OCC [ethyl tetradecanoate]
Details | mass density [kg/m3] | viscosity [mPa·s]
283.15 K | 868.7 | 6.26
288.15 K | 864.8 | 5.43
293.15 K | 861 | 4.749
298.15 K | 857.2 | 4.188
303.15 K | 853.4 | 3.721
308.15 K | 849.6 | 3.328
313.15 K | 845.8 | 2.993
318.15 K | 842 | 2.706
323.15 K | 838.2 | 2.458
328.15 K | 834.5 | 2.242
333.15 K | 830.7 | 2.055
338.15 K | 826.9 | 1.889
343.15 K | 823.1 | 1.743
348.15 K | 819.4 | 1.614
353.15 K | 815.6 | 1.499
